# “And” between values parts separate entries of the source, which are not always exact repeats. Equal values may be shown once.
# Test system: patients with prior myocardial infarction (CARE study)
# Test: CARE aligned analysis (prospective and case/control design, white males): association of genotypes with pravastatin efficacy (Tables 13, 15)
# Assay type: in vivo, human
# Description: The data presented in Table 8 based on an association of genotypes with pravastatin efficacy of the CARE samples were further analyzed and presented in Table 13. The further analysis was performed to align the data obtained from the analysis of the CARE samples, which was a prospective study, to the analysis of the WOSCOP samples, which was a case/control study. Table 13 also presents an analysis of the association of genotypes with pravastatin efficacy in the WOSCOPs samples. Relative to the analysis performed on the data presented in Table 8, there are two significant differences to determine if the SNP influenced pravastatin efficacy. Data obtained from the CARE samples were separated by study design into two groups, those in the prospective study design group and those in the case/control study design group. The original care study contained 16 protocol defined cardiovascular disease defined endpoints and 150 other phenotypes. […] The control groups used to compare the data were also divided into two groups, the “all possible” control group and the “cleaner” control group. […] Because the participants in the WOSCOPs trial were all white males, only data obtained from white males in the CARE study were analysed. Data from the “all possible” and “cleaner” controls were compared to data obtained from the cases in the prospective study design while only data from “cleaner” controls were compared to cases in the case/control study design. The data from the case/control cohorts were analysed using conditional logistic regression (as opposed to logistic regression used for the original anaylsis).
# The anaylsis was refined as described for both Tables 13 and 14.
# [1] = A2M hCV517658, CARE Case/Control, F&NF MI
# [2] = ABCA1 hCV2741051, CARE Case/Control, F&NF MI
# [3] = ABCA1 hCV2741051, CARE Prospective, F&NF MI
# [4] = ABCA1 hCV2741083, CARE Prospective, F&NF MI
# [5] = ADAM12 hCV25928135, CARE Case/Control, F&NF MI
# [6] = AGTR1 hCV3187716, CARE, Case/Control, F MI/SD/NF MI
# [7] = AGTR1 hCV3187716, CARE, Prospective, F MI/SD/NF MI
# [8] = ALOX12 hCV1552894, CARE Prospective, F&NF MI
# [9] = ALOX12 hCV1552900, CARE Prospective, F&NF MI
# [10] = ASAH1 hCV2442143, CARE, Prospective, F MI/SD/NF MI
# [11] = C14orf159 hCV25472345, CARE Case/Control, F&NF MI
# [12] = C14orf159 hCV25472345, CARE Prospective, F&NF MI
# [13] = CAPG hCV15851292, CARE, Case/Control, F MI/SD/NF MI
# [14] = CAPN10 hCV25614016, CARE, Case/Control, F MI/SD/NF MI, listed as Pravastatin
# [15] = CAPN10 hCV25614016, CARE, Prospective, F MI/SD/NF MI
smiles,measurement,setting,value
CC[C@H](C)C(=O)O[C@H]1C[C@H](O)C=C2C=C[C@H](C)[C@H](CC[C@@H](O)C[C@@H](O)CC(=O)O)[C@H]21 [pravastatin],"2 Rare Alleles (%), Pravastatin Patients",[1],(7.6%)
same,"2 Rare Alleles n/total, Pravastatin Patients",[1],11/144 and 11/101
same,"Pravastatin vs placebo odds ratio, 0 rare alleles",[1],0.55 and 0.53
same,"Pravastatin vs placebo odds ratio, 1 rare allele",[1],1.04 and 0.93
same,"Pravastatin vs placebo odds ratio, 2 rare alleles",[1],0.47 and 0.38
same,"2 Rare Alleles n/total, Pravastatin Patients",[2],12/93 and 12/64
same,"Pravastatin vs placebo odds ratio, 0 rare alleles",[2],0.55 and 0.52
same,"Pravastatin vs placebo odds ratio, 1 rare allele",[2],0.98 and 0.82
same,"Pravastatin vs placebo odds ratio, 2 rare alleles",[2],1.71 and 1.81
same,"2 Rare Alleles n/total, Pravastatin Patients",[3],12/94 and 12/65
same,"Pravastatin vs placebo odds ratio, 0 rare alleles",[3],0.55 and 0.52
same,"Pravastatin vs placebo odds ratio, 1 rare allele",[3],0.99 and 0.83
same,"Pravastatin vs placebo odds ratio, 2 rare alleles",[3],1.80 and 1.81
same,"2 Rare Alleles n/total, Pravastatin Patients","ABCA1 hCV2741083, CARE Case/Control, F&NF MI",4/22 and 4/18
same,"2 Rare Alleles n/total, Pravastatin Patients",[4],4/23 and 4/19
same,"Pravastatin vs placebo odds ratio, 0 rare alleles",[4],0.63
same,"Pravastatin vs placebo odds ratio, 1 rare allele",[4],1.52
same,"Pravastatin vs placebo odds ratio, 2 rare alleles",[4],2.74
same,Pravastatin vs. Placebo Odds Ratio,"ABCA1 hCV2741083, Patients with 0 Rare Alleles, CARE Case/Control, F MI/SD/NF MI",0.60
same,Pravastatin vs. Placebo Odds Ratio,"ABCA1 hCV2741083, Patients with 0 Rare Alleles, CARE Prospective, F MI/SD/NF MI",0.59
same,Pravastatin vs. Placebo Odds Ratio,"ABCA1 hCV2741083, Patients with 1 Rare Allele, CARE Case/Control, F MI/SD/NF MI",1.53
same,Pravastatin vs. Placebo Odds Ratio,"ABCA1 hCV2741083, Patients with 1 Rare Allele, CARE Prospective, F MI/SD/NF MI",1.61
same,Pravastatin vs. Placebo Odds Ratio,"ABCA1 hCV2741083, Patients with 2 Rare Alleles, CARE Case/Control, F MI/SD/NF MI",0.71
same,Pravastatin vs. Placebo Odds Ratio,"ABCA1 hCV2741083, Patients with 2 Rare Alleles, CARE Prospective, F MI/SD/NF MI",0.53
same,"2 Rare Alleles (%), Pravastatin Patients",[5],(17.1%)
same,"2 Rare Alleles n/total, Pravastatin Patients",[5],7/58 and 7/41
same,"Pravastatin vs placebo odds ratio, 2 rare alleles",[5],0.47 and 0.37
same,Pravastatin vs. Placebo Odds Ratio,"ADAMTS1 hCV529706, Patients with 0 Rare Alleles, CARE Case/Control, F MI/SD/NF MI",0.91
same,Pravastatin vs. Placebo Odds Ratio,"ADAMTS1 hCV529706, Patients with 1 Rare Allele, CARE Case/Control, F MI/SD/NF MI",0.64
same,Pravastatin vs. Placebo Odds Ratio,"ADAMTS1 hCV529706, Patients with 2 Rare Alleles, CARE Case/Control, F MI/SD/NF MI",0.20
same,Pravastatin vs. Placebo Odds Ratio,"ADAMTS1 hCV529710, Patients with 0 Rare Alleles, CARE Case/Control, F MI/SD/NF MI",0.91
same,Pravastatin vs. Placebo Odds Ratio,"ADAMTS1 hCV529710, Patients with 1 Rare Allele, CARE Case/Control, F MI/SD/NF MI",0.63
same,Pravastatin vs. Placebo Odds Ratio,"ADAMTS1 hCV529710, Patients with 2 Rare Alleles, CARE Case/Control, F MI/SD/NF MI",0.20
same,"2 rare alleles n/total (%), pravastatin patients",[6],(7.5%)
same,"Pravastatin vs placebo odds ratio, 0 rare alleles",[6],0.65
same,"Pravastatin vs placebo odds ratio, 1 rare allele",[6],1.03
same,"Pravastatin vs placebo odds ratio, 2 rare alleles",[6],0.26
same,"2 rare alleles n/total (%), pravastatin patients",[7],(7.2%)
same,"Pravastatin vs placebo odds ratio, 0 rare alleles",[7],0.65
same,"Pravastatin vs placebo odds ratio, 1 rare allele",[7],1.02
same,"Pravastatin vs placebo odds ratio, 2 rare alleles",[7],0.23
same,Pravastatin vs. Placebo Odds Ratio,"AGTR1 hCV3187716, Patients with 0 Rare Alleles, CARE Prospective, F MI/SD/NF MI",0.70
same,Pravastatin vs. Placebo Odds Ratio,"AGTR1 hCV3187716, Patients with 1 Rare Allele, CARE Prospective, F MI/SD/NF MI",1.18
same,Pravastatin vs. Placebo Odds Ratio,"AGTR1 hCV3187716, Patients with 2 Rare Alleles, CARE Prospective, F MI/SD/NF MI",0.27
same,"2 Rare Alleles (%), Pravastatin Patients",[8],(7.6%)
same,"2 Rare Alleles n/total, Pravastatin Patients",[8],15/198
same,"Pravastatin vs placebo odds ratio, 2 rare alleles",[8],0.38
same,"2 Rare Alleles (%), Pravastatin Patients",[9],(7.6%)
same,"2 Rare Alleles n/total, Pravastatin Patients",[9],15/198
same,"Pravastatin vs placebo odds ratio, 2 rare alleles",[9],0.38
same,"2 rare alleles n/total (%), pravastatin patients",[10],(13.2%)
same,"Pravastatin vs placebo odds ratio, 0 rare alleles",[10],0.42
same,"Pravastatin vs placebo odds ratio, 1 rare allele",[10],0.78
same,"Pravastatin vs placebo odds ratio, 2 rare alleles",[10],1.16
same,"2 Rare Alleles (%), Pravastatin Patients",[11],(5.0%)
same,"2 Rare Alleles n/total, Pravastatin Patients",[11],7/140
same,"Pravastatin vs placebo odds ratio, 2 rare alleles",[11],0.30
same,"2 Rare Alleles (%), Pravastatin Patients",[12],(5.0%)
same,"2 Rare Alleles n/total, Pravastatin Patients",[12],7/140
same,"Pravastatin vs placebo odds ratio, 2 rare alleles",[12],0.30
same,"2 rare alleles n/total (%), pravastatin patients",[13],(21.4%)
same,"Pravastatin vs placebo odds ratio, 0 rare alleles",[13],0.81
same,"Pravastatin vs placebo odds ratio, 1 rare allele",[13],0.37
same,"Pravastatin vs placebo odds ratio, 2 rare alleles",[13],5.35
same,"Pravastatin vs placebo odds ratio, 2 rare alleles","CAPN10 hCV25614016, CARE, Case/Control, F MI/SD/NF MI",0.90
same,"Pravastatin vs placebo odds ratio, 0 rare alleles",[14],0.62 and 0.56
same,"Pravastatin vs placebo odds ratio, 1 rare allele",[14],1.58 and 1.43
same,"Pravastatin vs placebo odds ratio, 2 rare alleles",[14],1.07
same,"2 rare alleles n/total (%), pravastatin patients",[15],(9.1%)
same,"Pravastatin vs placebo odds ratio, 0 rare alleles",[15],0.63 and 0.56
same,"Pravastatin vs placebo odds ratio, 1 rare allele",[15],1.60 and 1.42
